The values below come from PMC11542830, “3-nitropyridine analogues as novel microtubule-targeting agents” (PLOS ONE, 2024).

Usually IC50 stands for the point on the concentration scale where inhibition reaches its midpoint.

One test concerns A549 cells. In words: 3-day MTS cell viability assay, A549. It is filed as cell-based. The conditions noted are these: Homo sapiens, 72 hours, Fig 1C. As to the method: (§1) All cancer cell lines (HT-29: colorectal adenocarcinoma, HCT-116: colorectal carcinoma, A549: lung epithelial carcinoma, PC3: prostate adenocarcinoma, Jurkat: acute T-cell leukemia, BC-1: primary effusion lymphoma) and the normal human embryonal lung fibroblast cell line MRC-5 were acquired from the American Type Culture Collection (ATCC). All cell lines were cultured as recommended by the suppliers. Culture media were purchased from Gibco (Thermo Fisher Scientific) and supplemented with 10 to 20% fetal bovine serum (HyClone, GE Healthcare Life Sciences) and 20–25 μg/mL gentamicin (Gibco, Thermo Fisher Scientific). […]
(§2) Cell viability in cancer cell lines treated with compound was measured in a 3-day MTS cell proliferation assay using the CellTiter 96 AQueous Non-Radioactive Cell Proliferation Assay reagent (Promega) according to the manufacturer’s instructions. Absorbance was read at 490 nm on a SaFire II microplate reader (Tecan). CC50 values were calculated by fitting the obtained MTS cell viability data in GraphPad Prism using a 4-parameter log–based fit for inhibitors. Apoptosis induction and cell death upon compound treatment in PBMC was measured using the Alexa Fluor 488 Annexin V/Dead Cell Apoptosis Kit (Thermo Fisher Scientific), with readout on a FACSCanto II flow cytometer (BD Biosciences). […] The compounds were evaluated in duplo in two independent experiments.
Background: Formazan colour is commonly taken as a measure of viable cells.

In test [1] the test system is Jurkat cells. In words: 3-day MTS cell viability assay, Jurkat. It is filed as cell-based. Particulars: Homo sapiens, 72 hours, Fig 1C. The method, then: as §1, §2
Another test has as its system PC3 cells. Nature of the test: 3-day MTS cell viability assay, PC3. The format is cell-based. The conditions noted are these: Homo sapiens, PC-3, 72 hours, Fig 1C. As to the method:
as §1, §2

In test [2] the test system is Jurkat cells. In words: Apoptosis induction, annexin V/PI staining, Jurkat. It is filed as cell-based, human. The conditions noted are these: 24 hours, dose-dependent.
Test [3] concerns Jurkat cells. In words: Cell cycle analysis (DAPI, high content imaging), Jurkat. The format is cell-based, human. Particulars: 24 hours. As to the method:
as §2, with “Biosciences). For cell cycle analysis, Jurkat cells were seeded at 400,000 cells per well in 12-well tissue culture plates and treated with the test compounds at the indicated concentrations for 24 h. Cells were then harvested by centrifugation at 400 x g, washed in PBS and transferred to an 8-well μ-Slide (Ibidi) that had been pretreated with 0.1% (w/v) poly-L-lysine (Sigma). Cells were allowed to adhere to the slides, fixed with 4% PFA in PBS for 10 minutes, washed and stained with DAPI.” for “Biosciences).”

Another test has as its system CCRF-CEM. Nature of the test: NCI60 5-dose screen, CCRF-CEM. The format is cell-based. Particulars: Homo sapiens, leukemia, Fig 1D, read-out: Log10 GI50 (CCRF-CEM) (converted). As to the method:
(§3) The screening methodology used in the NCI60 Cell 5-Doses screen is described in detail at https://dtp.cancer.gov/discovery_development/nci-60/methodology.htm. Briefly, cells are seeded in 96 well plates at an appropriate density and incubated for 1 day. After 1 day, some of the plates are processed to determine a time zero density. To the remaining plates, compounds are added over a 5-log M concentration range (1 log dilutions from 10^-4M to 10^-8M). Plates are incubated for two additional days, then fixed and stained with sulforhodamine B. Growth inhibition is calculated relative to cells without drug treatment and the time zero control. The GI50 is the concentration of a compound that causes 50% growth inhibition, relative to the no drug control.

The test system of the next test is HL-60(TB). In words: NCI60 5-dose screen, HL-60(TB). The format is cell-based. The conditions noted are these: Homo sapiens, leukemia, Fig 1D, read-out: Log10 GI50 (HL-60(TB)) (converted). As to the method:
as §3

A further test relates to MOLT-4. Nature of the test: NCI60 5-dose screen, MOLT-4. It is filed as cell-based. The conditions noted are these: Homo sapiens, leukemia, Fig 1D, read-out: Log10 GI50 (MOLT-4) (converted). As to the method: as §3
The test system of the next test is A549/ATCC. Nature of the test: NCI60 5-dose screen, A549/ATCC. The format is cell-based. The conditions noted are these: Homo sapiens, non-small cell lung cancer, Fig 1D, read-out: Log10 GI50 (A549/ATCC) (converted). As to the method:
as §3

A further test has as its system NCI-H23. In words: NCI60 5-dose screen, NCI-H23. Particulars: Homo sapiens, non-small cell lung cancer, Fig 1D, read-out: Log10 GI50 (NCI-H23) (converted). The format is cell-based. As to the method:
as §3

The subject of the next test is NCI-H322M. Nature of the test: NCI60 5-dose screen, NCI-H322M. It is filed as cell-based. Particulars: Homo sapiens, non-small cell lung cancer, Fig 1D, read-out: Log10 GI50 (NCI-H322M) (converted). As to the method:
as §3

A further test relates to NCI-H460. In words: NCI60 5-dose screen, NCI-H460. It is filed as cell-based. The conditions noted are these: Homo sapiens, non-small cell lung cancer, Fig 1D, read-out: Log10 GI50 (NCI-H460) (converted). As to the method:
as §3

The test system of a further test is KM12. In words: NCI60 5-dose screen, KM12. The format is cell-based. Particulars: Homo sapiens, colon cancer, Fig 1D, read-out: Log10 GI50 (KM12) (converted). As to the method: as §3
The test system of a further test is SW-620. Nature of the test: NCI60 5-dose screen, SW-620. The format is cell-based. The conditions noted are these: Homo sapiens, colon cancer, Fig 1D, read-out: Log10 GI50 (SW-620) (converted). As to the method:
as §3

In a further test the test system is M14. Nature of the test: NCI60 5-dose screen, M14. It is filed as cell-based. The conditions noted are these: Homo sapiens, melanoma, Fig 1D, read-out: Log10 GI50 (M14) (converted). The method, then: as §3
The test system of another test is MDA-MB-435. In words: NCI60 5-dose screen, MDA-MB-435. It is filed as cell-based. The conditions noted are these: Homo sapiens, melanoma, Fig 1D, read-out: Log10 GI50 (MDA-MB-435) (converted). The method, then:
as §3

In another test the test system is SK-MEL-28. In words: NCI60 5-dose screen, SK-MEL-28. It is filed as cell-based. The conditions noted are these: Homo sapiens, melanoma, Fig 1D, read-out: Log10 GI50 (SK-MEL-28) (converted). The method, then:
as §3

The subject of another test is SK-MEL-5. Nature of the test: NCI60 5-dose screen, SK-MEL-5. It is filed as cell-based. Particulars: Homo sapiens, melanoma, Fig 1D, read-out: Log10 GI50 (SK-MEL-5) (converted). The method, then:
as §3

For a further test, the system named is UO-31. In words: NCI60 5-dose screen, UO-31. The conditions noted are these: Homo sapiens, renal cancer, Fig 1D, read-out: Log10 GI50 (UO-31) (converted). The format is cell-based. The method, then:
as §3

In another test the test system is MCF7. Nature of the test: NCI60 5-dose screen, MCF7. The format is cell-based. The conditions noted are these: Homo sapiens, breast cancer, Fig 1D, read-out: Log10 GI50 (MCF7) (converted). The method, then: as §3
Another test concerns MDA-MB-468. In words: NCI60 5-dose screen, MDA-MB-468. The format is cell-based. The conditions noted are these: Homo sapiens, breast cancer, Fig 1D, read-out: Log10 GI50 (MDA-MB-468) (converted). The method, then: as §3

In the case of `Cc1ccnc(Nc2ccc([N+](=O)[O-])c(NCCN3CCOCC3)n2)c1` [Compound 4AZA2996, N^6-(4-methylpyridin-2-yl)-N^2-(2-morpholinoethyl)-3-nitropyridine-2,6-diamine], the IC50 with A549 cells is 12 nM; with Jurkat cells [1], 14 nM; in the test with PC3 cells, 9.5 nM. The apoptosis induction entry in the test with Jurkat cells [2] is on record as “induce apoptosis”. Moreover, the “effect on cell cycle progression” value in the test on Jurkat cells [3] is on record as “induce G2 cell cycle arrest”. Further, the GI50 is 26.3 nM with CCRF-CEM; < 10 nM in the test on HL-60(TB); 35.5 nM with MOLT-4; < 10 nM in the test on A549/ATCC; 15.5 nM with NCI-H23; 46.8 nM with NCI-H322M. The GI50 was < 10 nM in the test on NCI-H460; < 10 nM in the test with KM12; < 10 nM with SW-620; < 10 nM in the test on M14; < 10 nM in the test on MDA-MB-435; 12600 nM in the test with SK-MEL-28. Also, the GI50 in the test with SK-MEL-5 is < 10 nM; in the test on UO-31, < 10 nM; in the test on MCF7 it was < 10 nM; in the test with MDA-MB-468, 27.5 nM.

As to `Cc1cc(C)cc(Nc2ccc([N+](=O)[O-])c(NCCN3CCOCC3)n2)c1` [Compound 4AZA2891, 6-(3,5-dimethylanilino)-2-(2-morpholinoethylamino)-3-nitropyridine], the IC50 is 20.3 nM with A549 cells, 19.8 nM in the test with Jurkat cells [1] and 11.9 nM with PC3 cells. In addition, in the test on Jurkat cells [2], the apoptosis induction result is on record as “induce apoptosis”. Besides, the “effect on cell cycle progression” value in the test on Jurkat cells [3] is “induce G2 cell cycle arrest”. The GI50 is 33.1 nM in the test on CCRF-CEM; 25.7 nM in the test on HL-60(TB); 56.2 nM with MOLT-4; 20 nM in the test on A549/ATCC; 27.5 nM in the test on NCI-H23; 81.3 nM with NCI-H322M. Also, the GI50 is 17.4 nM in the test with NCI-H460; < 10 nM in the test on KM12; 14.8 nM with SW-620; 12 nM in the test with M14; < 10 nM with MDA-MB-435; 2750 nM in the test with SK-MEL-28. Moreover, the GI50 in the test with SK-MEL-5 is < 10 nM; with UO-31 it was 1380 nM; with MCF7 it was < 10 nM; in the test on MDA-MB-468, < 10 nM.
